Laboratory results reported in patent publication US12102705B2, “Peptides having inhibitory activity on muscarinic receptor M3” (AZIENDE CHIMICHE RIUNITE ANGELINI FRANCESCO—A.C.R.A.F. …, priority 2018, dated 2024).
Structures can show the parent of a compound that is named as a salt. Peptide text beside a SMILES is read from it. * marks the point of attachment. Palmitoyl = CCCCCCCCCCCCCCCC(=O)*; Myristoyl = CCCCCCCCCCCCCC(=O)*

Columns and labels:
Assay type in all cases: cell-based
[1] = system: human epidermal keratinocytes (HEKa); experiment: MTT cell viability assay in keratinocytes; conditions: as TFA-salt, any concentration assessed; keratinocytes and fibroblasts
Description: This example evaluated the effects of the tested peptides on human epidermal keratinocytes and dermal fibroblasts cell viability. The 3-(4,5-dimethyl-2-thiazolyl)-2,5-diphenyl-2H-tetrazolium bromide (MTT) assay was used to that monitor cell proliferation and viability based on the capacity of the mitochondrial dehydrogenase enzyme to break and transform the tetrazolium rings of MTT.
Epidermal keratinocytes were seeded in a previously coated 96 well-plate at 50-60% confluence in 100 μL of supplemented medium. Dermal fibroblasts were seeded in a 96 well-plate at 70% confluence in 100 μL supplemented medium. 24 hours after seeding, medium was replaced by fresh supplemented medium containing peptides dissolved at concentration range between 0.1 and 100 μM or SDS as reference of 100% toxicity or DMSO as vehicle for peptides. All test substances were incubated for 24 hours at 37° C. and 5% CO2. Afterwards, medium was replaced by 0.5 mg/mL of MTT solution for 4 h in complete medium. Then, medium was carefully removed and 150 μL/well of DMSO were added to solubilize formazan crystals. Plate was protected from light, shaken for 60 seconds and optical density was measured at 570 nm with a reference filter of 620 nm. Toxicity values were calculated as percentages by considering maximum cytotoxic effect to SDS-treated cells and minimum as non-treated cells. Table G details effects of Seq. ID No 1, 5, 6 and 7 peptides on keratinocytes and fibroblasts as percentage of cell viability inhibition.

[2] = biological target: T1, human muscarinic receptor M3 (Homo sapiens, UniProt P20309); experiment: Inhibition of M3-acetylcholine activation, Fluo-4 NW calcium fluorescence; conditions: 50 min incubation, 10 nM acetylcholine; for inhibition at 10 µM / inhibition at 50 µM / inhibition at 100 µM: 50 min
T1 construct: expressed in transfected cells; cultured in Ham's F-12 medium
T1 sequence (P20309 whole entry): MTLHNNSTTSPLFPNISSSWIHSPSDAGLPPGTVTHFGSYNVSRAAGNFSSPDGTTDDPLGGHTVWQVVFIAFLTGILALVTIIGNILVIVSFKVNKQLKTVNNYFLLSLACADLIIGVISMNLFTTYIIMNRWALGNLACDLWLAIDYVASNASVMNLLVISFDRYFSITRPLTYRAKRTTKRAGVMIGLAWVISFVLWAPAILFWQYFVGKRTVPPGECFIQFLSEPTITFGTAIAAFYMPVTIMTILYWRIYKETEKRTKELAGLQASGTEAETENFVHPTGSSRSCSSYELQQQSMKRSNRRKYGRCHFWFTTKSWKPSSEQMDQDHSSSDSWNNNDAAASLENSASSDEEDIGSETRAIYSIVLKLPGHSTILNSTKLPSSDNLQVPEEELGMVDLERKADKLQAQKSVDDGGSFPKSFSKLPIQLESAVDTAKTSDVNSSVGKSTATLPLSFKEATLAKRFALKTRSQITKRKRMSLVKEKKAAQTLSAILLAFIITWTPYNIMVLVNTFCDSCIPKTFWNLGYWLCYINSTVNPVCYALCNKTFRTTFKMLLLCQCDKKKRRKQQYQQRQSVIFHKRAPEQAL
Description: (§1) Epithelial stable cell line constitutively expressing human muscarinic receptor M3 was used to assess peptides activity. Cells were seeded in 96-well plates at 50% cell confluence in 100 μL of complete Ham's F-12 medium. After 24 hours, medium was removed and cells were incubated with 90 μL/well of a solution of the peptides of the invention at 100, 50 or 10 μM or DMSO as vehicle. Peptides were dissolved in Fluo-4 NW (Invitrogen) fluorescent calcium probe assay buffer containing Probenecid, following manufacturer's instructions for 50 min at 37° C. in a CO2 incubator. Afterwards, M3 activity was determined by reading the fluorescence in a FLUOstar Galaxy reader (BMG LabTechnologies) using 485 nm filter for excitation and 520 nm for emission, recording signal before and after M3 activation with 10 nM acetylcholine. Fluorescence measurements were normalized to acetylcholine maximum fluorescence signal in vehicle treated cells. Atropine (100 nM) was used as positive control for inhibition. Inhibition values of M3 activity were calculated as percentages by considering maximum fluorescence corresponding to acetylcholine-M3 activation and minimum as non-stimulated cells. Table D details inhibition values of M3 activity inhibition obtained for the peptides of invention.

[3] = biological target: T1, human muscarinic receptor M3; experiment: Dose-response inhibitory effect on M3 activity (IC50)
Description: as §1
Characterization of Seq. ID No. 1, 3-8 peptides efficiency was obtained by calculating half maximal inhibitory concentration (IC50). For this purpose, experimental procedure regarding cell culture and fluorescent calcium probe assay was followed as described on Example 2. Peptides were assessed at concentrations between 0.1 and 100 μM and incubated for 1 hour together with Fluo-4 NW probe. Afterwards, M3 activity was determined by reading the fluorescence in a FLUOstar Galaxy reader (BMG LabTechnologies) using 485 nm filter for excitation and 520 nm for emission, recording signal before and after M3 activation with acetylcholine. Fluorescence measurements were standardized with regard to the maximum fluorescence signal detected with acetylcholine stimulation in vehicle treated cells. Inhibition values of M3 activity were calculated as percentages by considering maximum fluorescence corresponding to acetylcholine-M3 activation and minimum as non-stimulated cells. Percentage inhibition data was fitted to a sigmoidal curve to obtain IC50. Table F details inhibition values for IC50

[4] = biological target: T1, human muscarinic receptor M3; experiment: Time-dependent inhibition of M3 activity, Fluo-4 NW calcium fluorescence; conditions: peptide 50 μM, read-out: % Inhibition hM3 receptor activity
Description: Peptides of invention were designed to target the intracellular region of M3. Therefore, minimum time required to detect inhibitory effect on M3 activity was evaluated. For this purpose, inhibitory effect of peptides Seq. […] Epithelial stable cell line constitutively expressing human muscarinic receptor M3 was used to assess peptides activity. Cells were seeded in 96-well plates at 50% cell confluence in 100 μL of complete Ham's F-12 medium. After 24 hours, medium was removed and cells were incubated with 90 μL/well of Fluo-4 NW (Invitrogen) fluorescent calcium probe assay buffer containing probenecid, following manufacturer's instructions at 37° C. in a CO2 incubator. Peptides (50 μM), vehicle and atropine were incubated either with the probe (1 hour pre-incubation) or during fluorescence reading (direct effect). Afterwards, M3 activity was recorded for 20 cycles and direct effect peptides were added on cycle 3 after baseline assessment. Acetylcholine was added on cycle 13. Therefore, direct effect of peptides was monitored for 25 minutes. Inhibition values of M3 activity were calculated as percentages by considering maximum fluorescence corresponding to vehicle or non-treated cells acetylcholine-M3 activation and minimum as non-stimulated cells. Table E details inhibition values of M3 activity inhibition obtained for the peptides of invention.

[5] = 25 min, 25 minutes (direct effect)
[6] = 60 minutes (1 hour pre-incubation)

Row | Compound | inhibition at 10 µM ([2]; peptide 10 μM) [%] | inhibition at 50 µM ([2]; peptide 50 μM) [%] | inhibition at 100 µM ([2]; peptide 100 μM) [%] | IC50 [3] [µM] | inhibition at 50 µM [4, 5] [%] | inhibition at 50 µM [4, 6] [%] | % M3 inhibition ([2]; peptide 10 μM) [%] | also measured
1 | CCCCCCCCCCCCCCCC(=O)N[C@@H](Cc1c[nH]c2ccccc12)C(=O)N[C@@H](CCSC)C(=O)N[C@@H](CCCNC(=N)N)C(=O)N[C@@H](CC(C)C)C(N)=O [Seq. ID No. 1 Palmitoyl (TFA salt)] (Palmitoyl-WMRL-NH2) |  |  |  |  |  |  |  | effect on cell proliferation [1]: did not affect cell proliferation
2 | CCCCCCCCCCCCCCCC(=O)N[C@@H](Cc1c[nH]c2ccccc12)C(=O)N[C@@H](CCSC)C(=O)N[C@@H](CCCNC(=N)N)C(=O)N[C@@H](CC(C)C)C(N)=O [Seq. ID No. 1 Palmitoyl] (Palmitoyl-WMRL-NH2) | 15.4 | 70.9 | 95.6 | 38.3 | 25.1 | 69.5 |  | 
3 | CCCCCCCCCCCCCCCC(=O)N[C@@H](Cc1c[nH]c2ccccc12)C(=O)N[C@@H](CCSC)C(=O)N[C@@H](CCCNC(=N)N)C(=O)N[C@@H](CC(C)C)C(=O)N[C@@H](CCCCN)C(=O)N[C@@H](C)C(N)=O [Seq. ID No. 3 Palmitoyl] (Palmitoyl-WMRLKA-NH2) | 41 | 73.7 | 75.7 | 12.7 | 16.4 | 73 |  | 
4 | CCCCCCCCCCCCCCCC(=O)N[C@@H](Cc1c[nH]c2ccccc12)C(=O)N[C@@H](CCSC)C(=O)N[C@@H](CC(N)=O)C(=O)N[C@@H](CC(C)C)C(=O)N[C@@H](CCCCN)C(=O)N[C@H](C(N)=O)[C@@H](C)O [Seq. ID No. 4 Palmitoyl] (Palmitoyl-WMNLKT-NH2) | 35.3 | 59.6 | 60.6 | 8 | 11.5 | 69.1 |  | 
5 | CCCCCCCCCCCCCCCC(=O)N[C@@H](Cc1c[nH]c2ccccc12)C(=O)N[C@@H](CCSC)C(=O)N[C@@H](Cc1ccccc1)C(=O)N[C@@H](CC(C)C)C(=O)N[C@@H](CCCCN)C(N)=O [Seq. ID No. 5 Palmitoyl (TFA salt)] (Palmitoyl-WMFLK-NH2) |  |  |  |  |  |  |  | effect on cell proliferation [1]: did not affect cell proliferation
6 | CCCCCCCCCCCCCCCC(=O)N[C@@H](Cc1c[nH]c2ccccc12)C(=O)N[C@@H](CCSC)C(=O)N[C@@H](Cc1ccccc1)C(=O)N[C@@H](CC(C)C)C(=O)N[C@@H](CCCCN)C(N)=O [Seq. ID No. 5 Palmitoyl] (Palmitoyl-WMFLK-NH2) | 0 | 45.7 | 80.6 | 61.1 | -7.1 | 84.4 |  | 
7 | CCCCCCCCCCCCCC(=O)N[C@@H](CCCNC(=N)N)C(=O)N[C@@H](CCSC)C(=O)N[C@@H](Cc1ccc(O)cc1)C(=O)N[C@@H](CCCCN)C(=O)N[C@@H](CCSC)C(=O)N[C@@H](CCSC)C(=O)N[C@@H](C)C(=O)NCC(=O)N[C@@H](CCSC)C(=O)N[C@@H](Cc1ccc(O)cc1)C(=O)N[C@@H](CC(C)C)C(=O)N[C@@H](CCCNC(=N)N)C(N)=O [Seq. ID No. 6 Myristoyl] (Myristoyl-RMYKMMAGMYLR-NH2) | 14.8 | 56.4 | 92.1 | 55.2 | -20.2 | 54.7 |  | 
8 | CCCCCCCCCCCCCC(=O)N[C@@H](CCCNC(=N)N)C(=O)N[C@H](C(=O)N[C@@H](CCSC)C(=O)N[C@@H](Cc1ccc(O)cc1)C(=O)N[C@@H](CCCCN)C(=O)N[C@@H](CCSC)C(=O)N[C@@H](CC(N)=O)C(=O)N[C@@H](CCCCN)C(=O)N[C@@H](CCCNC(=N)N)C(=O)N[C@@H](CC(=O)O)C(=O)N[C@@H](Cc1ccc(O)cc1)C(N)=O)C(C)C [Seq. ID No. 7 Myristoyl] (Myristoyl-RVMYKMNKRDY-NH2) | 15.9 | 54.8 | 92.4 | 55 | 16.4 | 82.7 |  | 
9 | CCCCCCCCCCCCCC(=O)N[C@@H](CCCNC(=N)N)C(=O)N[C@H](C(=O)N[C@@H](CCSC)C(=O)N[C@@H](Cc1ccccc1)C(=O)N[C@@H](CCCCN)C(=O)N[C@@H](CCSC)C(=O)N[C@@H](Cc1ccccc1)C(=O)N[C@@H](CCCCN)C(=O)N[C@@H](CCCNC(=N)N)C(=O)N[C@@H](CC(=O)O)C(=O)N[C@@H](Cc1ccc(O)cc1)C(N)=O)C(C)C [Seq. ID No. 8 Myristoyl] (Myristoyl-RVMFKMFKRDY-NH2) | 42.5 | 71.7 | 93.8 | 9.8 | 6.1 | 87.1 |  | 
10 | Ac-RMYKMMAGMYLR-NH2 [Seq. ID No. 6 Acetyl (TFA salt)] |  |  |  |  |  |  |  | effect on cell proliferation [1]: did not affect cell proliferation
11 | Ac-RVMYKMNKRDY-NH2 [Seq. ID No. 7 Acetyl (TFA salt)] |  |  |  |  |  |  |  | effect on cell proliferation [1]: did not affect cell proliferation
12 | Seq. ID No. 2 Acetyl: Nt-acetyl WMRLK, C terminus amidated (Ac-WMRLK-NH2) |  |  |  |  |  |  | 0.0 | % M3 inhibition ([2]; peptide 50 μM): 9.1%; % M3 inhibition ([2]; peptide 100 μM): 24.6%
13 | Seq. ID No. 5 Acetyl: Nt-acetyl WMFLK, C terminus amidated (Ac-WMFLK-NH2) |  |  |  |  |  |  | 3.9 | % M3 inhibition ([2]; peptide 50 μM): 6.2%; % M3 inhibition ([2]; peptide 100 μM): 15.1%
14 | Seq. ID No. 6 Acetyl: Nt-acetyl RMYKMMAGMYLR, C terminus amidated (Ac-RMYKMMAGMYLR-NH2) |  |  |  |  |  |  | 3.0 | % M3 inhibition ([2]; peptide 50 μM): 26.4%; % M3 inhibition ([2]; peptide 100 μM): 32.5%
15 | Seq. ID No. 6 Palmitoyl: Nt-palmitoyl RMYKMMAGMYLR, C terminus amidated (Palmitoyl-RMYKMMAGMYLR-NH2) |  |  |  |  |  |  | 34.5 | 
16 | Seq. ID No. 7 Acetyl: Nt-acetyl RVMYKMNKRDY, C terminus amidated (Ac-RVMYKMNKRDY-NH2) |  |  |  |  |  |  | 8.6 | % M3 inhibition ([2]; peptide 50 μM): 8.3%; % M3 inhibition ([2]; peptide 100 μM): 20.6%
17 | Seq. ID No. 7 Palmitoyl: Nt-palmitoyl RVMYKMNKRDY, C terminus amidated (Palmitoyl-RVMYKMNKRDY-NH2) |  |  |  |  |  |  | 47.4 | 
18 | Seq. ID No. 8 Acetyl: Nt-acetyl RVMFKMFKRDY, C terminus amidated (Ac-RVMFKMFKRDY-NH2) |  |  |  |  |  |  | 21.5 | % M3 inhibition ([2]; peptide 50 μM): 12.4%; % M3 inhibition ([2]; peptide 100 μM): 26.1%
19 | Seq. ID No. 8 Palmitoyl: Nt-palmitoyl RVMFKMFKRDY, C terminus amidated (Palmitoyl-RVMFKMFKRDY-NH2) |  |  |  |  |  |  | 32.7 | 
